# US20060084704A1, “Methods and compositions for enhancing degradation of nuclear receptor transcription factors and uses thereof” (priority 2004, published 2006)
# Tests used:
# LNCaP cells = test: LNCaP growth assay (cell count); assay type: cell-based, human
# Procedure: LNCaP cells express an endogenous mutant AR that is found in prostate cancer patients. This clinically relevant cell model was used to study JC9's effect in suppressing prostate cancer cell growth. Cells were plated at a density of 6.3×10^4 cells/well in 6-well tissue culture dishes. Two days later, the complete medium was aspired and 10% charcoal/dextran-treated (hormone depleted) serum-containing medium was added. Test compounds, JC9 and hydroxyflutamide (HF) were then added to the medium at a final concentration of 5 μM with or without 1 nM of DHT. For vehicle control, the same amount of DMSO was added. For the subsequent 5 days, the medium was aspired once per day, and fresh medium containing test compounds and/or DHT was added. At designated times, a portion of cells was harvested by trypsinization, and cell count was performed using a hemacytometer.
# [1] = tested on: testosterone-induced hair growth suppression; test: Androgen-induced alopecia model, hair re-growth in shaved mice; assay type: in vivo, C57BL/6J mice; conditions: topical testosterone 1% in the morning, control solution in the afternoon, 20 days
# Procedure: C57BL/6J mice were used in this animal model for hair loss and regrowth (Uno et al. (1990) J. Cutaneous Aging & Cosm. Derm., 1: 193, which is incorporated by reference in its entirety herein). Six-week-old male mice (6 to 7 animals per group) were shaved with an electric clipper, and then treated with a hair-removal cream for 1 to 2 minutes. […] One day after hair removal, a first group of animals each received 100 microliters of a 1% testosterone solution in ethanol, applied topically to the shaved area, once each morning for twenty consecutive days. A second group of animals each received 100 microliters of vehicle (ethanol) alone, applied topically to the shaved area, once each morning for twenty consecutive days. The first group of mice (testosterone-treated) were divided further into a control group and a treatment group. Also beginning one day after hair removal, each mouse in the control group received 100 microliters of a control solution (60% ethanol, 20% propylene glycol, and 20% water) and each mouse in the treatment group received 100 microliters of the test compound, JC9 (0.02% in the same 60% ethanol, 20% propylene glycol, and 20% water solution), applied topically to the shaved area, once each afternoon for twenty consecutive days. Hair re-growth in the shaved areas was observed and photographed at 12, 15, 18, 21, and 24 days after beginning of the topical treatments.
structure (smiles),measurement,setting,value
"C[C@]12CCC(=O)C[C@@H]1CC[C@@H]1[C@@H]2CC[C@]2(C)[C@@H](O)CC[C@@H]12 [DHT, dihydrotestosterone]",LNCaP cell growth with DHT alone,"LNCaP cells; 1 nM DHT, 4-5 days",up-regulated LNCaP cell growth
"CC(C)(O)C(=O)Nc1ccc([N+](=O)[O-])c(C(F)(F)F)c1 [HF, hydroxyflutamide]",cell growth (cell number) in the presence of DHT,"LNCaP cells; 5 μM, with 1 nM DHT, 5 days",moderate activity to repress DHT-stimulated cell growth
same,cell growth (cell number),"LNCaP cells; 5 μM, without DHT, 5-day incubation","dramatic growth suppressing effect, however, was not detected"
"C[C@]12CC[C@H]3[C@@H](CCC4=CC(=O)CC[C@@]43C)[C@@H]1CC[C@@H]2O [testosterone, reference compound]",hair re-growth in shaved areas,[1],little or no re-growth of hair
